In PubChem BioAssay (NCI):
“And” between values parts separate entries of the source, which are not always exact repeats. Identical values can stand only once.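 These data come from cells grown in 96-well plates and exposed to compound for 48 hours at five concentrations. GI50 is the concentration that inhibits growth by half. TGI: total growth inhibition.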

Key:
Test in all cases: DTP human tumour cell line panel, 48 h
[1] = test system: HS 578T breast
[2] = test system: UACC-62 melanoma
[3] = test system: NCI-H522 lung
[4] = test system: HCC-2998 colon
[5] = test system: ACHN renal
[6] = test system: HL-60(TB) leukemia
[7] = test system: CAKI-1 renal
[8] = test system: HCT-116 colon
[9] = test system: CCRF-CEM leukemia
[10] = test system: NCI-H460 lung
[11] = test system: SF-295 CNS
[12] = test system: SF-539 CNS
[13] = test system: NCI-H226 lung
[14] = test system: SNB-75 CNS
[15] = test system: DU-145 prostate
[16] = test system: SW-620 colon
[17] = test system: UACC-257 melanoma
[18] = test system: M14 melanoma
[19] = test system: 786-0 renal
[20] = test system: NCI-H23 lung
[21] = test system: MALME-3M melanoma
[22] = test system: COLO 205 colon
[23] = test system: SK-MEL-5 melanoma
[24] = test system: HCT-15 colon
[25] = test system: NCI/ADR-RES ovarian
[26] = test system: MOLT-4 leukemia
[27] = test system: TK-10 renal
[28] = test system: HT29 colon
[29] = test system: SNB-19 CNS
[30] = test system: T-47D breast
[31] = test system: SK-MEL-28 melanoma
[32] = test system: UO-31 renal
[33] = test system: SK-OV-3 ovarian
[34] = test system: KM12 colon
[35] = test system: U251 CNS
[36] = test system: EKVX NSCLC
[37] = test system: HOP-92 NSCLC
[38] = test system: MDA-MB-435
[39] = test system: MCF7 breast
[40] = test system: MDA-MB-231 breast
[41] = test system: SK-MEL-2 melanoma
[42] = test system: RXF 393 renal
[43] = test system: IGROV1 ovarian
[44] = test system: A498 renal
[45] = test system: LOX IMVI melanoma
[46] = test system: SF-268 CNS
[47] = test system: PC-3 prostate
[48] = test system: RPMI-8226 leukemia
[49] = test system: K-562 leukemia
[50] = test system: OVCAR-4 ovarian
[51] = test system: OVCAR-5 ovarian
[52] = test system: SR leukemia
[53] = test system: OVCAR-8 ovarian
[54] = test system: A549 NSCLC
[55] = test system: HOP-62 NSCLC
[56] = test system: OVCAR-3 ovarian
[57] = test system: SN12C renal
[58] = test system: BT-549 breast

For `CC1CCCc2sc3nc(NNC(=O)c4cnccn4)n(-c4ccccc4)c(=O)c3c21` (stereo not given), the GI50 [1] was 3460 nM and 2790 nM, the TGI [1] was > 74600 nM and 87300 nM and the GI50 [2] was 296 nM and 258 nM. The TGI [2] was 2200 nM and 1110 nM, the GI50 [3] was 392 nM and 327 nM and the TGI [3] was 10200 nM and 16600 nM. The GI50 [4] was 550 nM and 324 nM, the TGI [4] was 26300 nM and 16300 nM and the GI50 [5] was 331 nM and 217 nM. For the same compound, the TGI [5] was 18700 nM and 13100 nM, the GI50 [6] was 367 nM and 279 nM and the TGI [6] was 2750 nM and 908 nM. For the same compound, the GI50 [7] was 559 nM and 334 nM, the TGI [7] was > 54400 nM and 9230 nM and the GI50 [8] was 338 nM and 264 nM. For the same compound, the TGI [8] was 14000 nM and 13400 nM, the GI50 [9] was 295 nM and 169 nM and the TGI [9] was > 100000 nM. For the same compound, the GI50 [10] was 250 nM and 121 nM, the TGI [10] was 11400 nM and 2270 nM and the GI50 [11] was 479 nM and 159 nM. The TGI [11] was 15400 nM and 7810 nM, the GI50 [12] was 658 nM and 328 nM and the TGI [12] was 10300 nM and 4320 nM. For the same compound, the GI50 [13] was 634 nM and 277 nM, the TGI [13] was 9600 nM and 5750 nM and the GI50 [14] was 1060 nM and 899 nM. The TGI [14] was 38700 nM and > 50000 nM, the GI50 [15] was 598 nM and 339 nM and the TGI [15] was > 39800 nM and 18900 nM. The GI50 [16] was 483 nM and 463 nM, the TGI [16] was > 100000 nM and the GI50 [17] was 540 nM and 365 nM. The TGI [17] was 6980 nM and 3860 nM, the GI50 [18] was 321 nM and 205 nM and the TGI [18] was 5440 nM and 2650 nM. The GI50 [19] was 508 nM and 274 nM, the TGI [19] was 12400 nM and 5430 nM and the GI50 [20] was 871 nM and 465 nM. The TGI [20] was > 100000 nM and 26500 nM, the GI50 [21] was 657 nM and 345 nM and the TGI [21] was 11600 nM and 11100 nM. The GI50 [22] was 327 nM and 284 nM, the TGI [22] was 3520 nM and 25000 nM and the GI50 [23] was 371 nM and 205 nM. For the same compound, the TGI [23] was 1810 nM and 933 nM, the GI50 [24] was 237 nM and 71.7 nM and the TGI [24] was 34400 nM and 17600 nM. For the same compound, the GI50 [25] was 380 nM and 232 nM, the GI50 [26] was 343 nM and 256 nM and the TGI [26] was > 100000 nM. For the same compound, the GI50 [27] was 686 nM and 329 nM, the TGI [27] was > 83000 nM and the GI50 [28] was 975 nM and 461 nM. The TGI [28] was 49000 nM and 17600 nM, the GI50 [29] was 389 nM and 340 nM and the TGI [29] was > 100000 nM. The GI50 [30] was 520 nM and 397 nM, the TGI [30] was > 100000 nM and the GI50 [31] was 485 nM and 378 nM. For the same compound, the TGI [31] was 19800 nM and 32500 nM, the GI50 [32] was 214 nM and 151 nM and the TGI [32] was 6470 nM and 2960 nM. For the same compound, the GI50 [33] was 489 nM and 544 nM, the TGI [33] was 8420 nM and 8200 nM and the GI50 [34] was 428 nM and 347 nM. The TGI [34] was > 49100 nM and 32500 nM, the GI50 [35] was 260 nM and 182 nM and the TGI [35] was > 40800 nM and 30100 nM. The GI50 [36] was 383 nM and 258 nM, the TGI [36] was > 100000 nM and the GI50 [37] was 996 nM and 397 nM. The TGI [37] was 21800 nM and 16600 nM, the GI50 [38] was 700 nM and 556 nM and the TGI [38] was 25100 nM and > 40800 nM. The GI50 [39] was 325 nM and 238 nM, the TGI [39] was > 79300 nM and 14400 nM and the GI50 [40] was 425 nM and 328 nM. For the same compound, the TGI [40] was 13400 nM and 13500 nM, the GI50 [41] was 1050 nM and 705 nM and the TGI [41] was 19400 nM and 19800 nM. For the same compound, the GI50 [42] was 955 nM and 454 nM, the TGI [42] was 5480 nM and 3840 nM and the GI50 [43] was 327 nM and 172 nM. For the same compound, the TGI [43] was 16900 nM and 13300 nM, the GI50 [44] was 2620 nM and 688 nM and the TGI [44] was 8540 nM and 4440 nM. The GI50 [45] was 259 nM and 195 nM, the TGI [45] was 3800 nM and 8060 nM and the GI50 [46] was 346 nM and 207 nM. For the same compound, the TGI [46] was > 100000 nM, the GI50 [47] was 499 nM and 385 nM and the TGI [47] was 22200 nM and 26600 nM. The GI50 [48] was 563 nM and 277 nM, the TGI [48] was 17900 nM and 16600 nM and the GI50 [49] was 454 nM and 399 nM. For the same compound, the TGI [49] was > 100000 nM, the GI50 [50] was 211 nM and 215 nM and the TGI [50] was > 100000 nM. For the same compound, the GI50 [51] was 656 nM and 371 nM, the TGI [51] was 30900 nM and 33600 nM and the GI50 [52] was 361 nM and 110 nM. For the same compound, the TGI [52] was > 32600 nM, the GI50 [53] was 346 nM and 333 nM and the TGI [53] was > 93200 nM. For the same compound, the GI50 [54] was 367 nM and 262 nM, the TGI [54] was 22400 nM and 16200 nM and the GI50 [55] was 385 nM and 203 nM. For the same compound, the TGI [55] was > 100000 nM, the GI50 [56] was 288 nM and 249 nM and the TGI [56] was 22200 nM and 12500 nM. The GI50 [57] was 468 nM and 368 nM, the TGI [57] was 15900 nM and 13700 nM and the GI50 [58] was 813 nM and 472 nM. For the same compound, the TGI [58] was 28600 nM and 12400 nM.
